Laboratory results published in US7745569B2, “Amyloid specific binding peptides and detecting abeta peptide” (The Regents of the University of California, priority 2003, dated 2010).
“Also recorded” adds a separate entry of the source. Values belong to the compound of their own block, whether it stands above or below them. Positions of bridges follow the written chain, without caps; N, C: chain ends. Residues, ends and D or L forms follow the SMILES beside them. No end group written: not given here. *: point of attachment. Biotin = O=C1N[C@H]2[C@H](CS[C@H]2CCCCC(=O)*)N1

Experiments:
[1] = Uptake of peptide into brain, liver and kidney after tail vein injection; conditions: mouse, i.v. tail vein, 100 μL of 1 mg/mL; percentage relative to peptide in serum; SD, n=4
Protocol: (§1) Peptides were injected in sterile Tris-buffered saline, pH 7.4, with 1 mM CaCl2 and 1 mM MgCl2. 4 animals were injected for each condition. Animals were then sacrificed after one minute or two minutes. Immediately upon sacrifice, blood and organs were harvested. To quantitate peptide uptake, brain, liver, and kidney were washed and the tissues lysed by homogenization in doubly distilled water. Organs and blood were centrifuged at 13000 g to collect lysate. Organ lysates or serum were then immobilized on ELISA plates that had been coated with nitrocellulose. Some tissue and serum samples were spiked with known amounts of purified peptide to verify levels of peptide immobilization in different sample types. […] The levels of biotinylated peptide immobilized on ELISA plates was quantitated by binding of alkaline phosphatase-conjugated streptavidin. Levels of streptavidin binding were determined by development with para-nitrophenylphosphate, as in Kang et al. (Neurobiology of Disease 14:146-156 (2003)).

[2] = mouse, in vivo, iv
Protocol: as §1

[3] = target: T1, amyloid form of Aβ1-40 peptide (Homo sapiens, UniProt P05067, R676K/Y681T); assay: Staining of Aβ1-40 amyloid by phage clones; type: binding; conditions: 10^11 PFU/ml phage; anti-M13 antibody/alkaline phosphatase detection
T1 construct: purchased Bachem (Torrence, Calif.)
Protocol: Staining and blotting with phage: 10^11 PFU (plaque forming units)/ml of various phage clones were incubated with the amyloid form of Aβ1-40 peptide. Aβ amyloid was made by incubating peptide in TBS (pH 7.4) for 7 days on Falcon 24-well tissue culture wells. After washing, bound phage were visualized by incubation with biotinylated anti-M13 antibody and alkaline phosphatase-conjugated streptavidin, followed by incubation for equivalent times in 5-bromo-4-chloro-3-indolyl phosphate (BCIP) and nitroblue tetrazolium (NBT).

Aβ1-40 amyloid = target: T2, Aβ1-40 amyloid (Homo sapiens, UniProt P05067, R676K/Y681T); type: binding; conditions: immobilized Aβ1-40 amyloid, ELISA
T2 construct: purchased Bachem (Torrence, Calif.)

[4] = test system: amyloid plaques in Alzheimer's disease brain; assay: Staining of human brain sections (AD and normal) with Thio-Aβ, Thio and synthetic peptide; type: binding
Protocol: Staining of human brain with recombinant Thio-Aβ-protein and synthetic peptides: Normal and AD brain samples were obtained from the UCSD Alzheimer's Research Center (La Jolla, Calif.). Sections from a non-AD amyloidosis patient were obtained from the Department of Pathology (UCSD). Paraffin-embedded samples of cortex or other tissues were sectioned at 10 μm and mounted on glass slides. […] Binding was determined by subsequent staining with anti-Thio antibody and anti-mouse IgG coupled to alkaline phosphatase as above. After washing, staining was developed using 5-bromo-4-chloro-3-indolyl-phosphate and nitroblue tetrazolium for identical periods of time. All washes and incubations were done in phage buffer. The existence of amyloid plaques was confirmed by binding of anti-Aβ monoclonal antibody (2066) to sections from the same brain samples. No significant staining was ever observed with secondary antibody alone. Background staining was allowed to develop to the point where cells in the section were evident.
For staining with synthetic peptide, tissue sections from AD and non-AD brain, as well as from brain, kidney, small bowel, large bowel, and prostate from a non-AD patient with amyloidosis, were cut and prepared as above. Biotinylated peptide ([…]) (SEQ ID NO:4) was added in phage buffer for 1 hour at concentrations ranging from 0.1-10 μM. Sections were washed with phage buffer, incubated with streptavidin coupled to alkaline phosphatase, washed and developed as above. […] Congo Red or hematoxylin and eosin staining was done to confirm the presence of amyloid in amyloidosis sections.

% uptake/min, Kidney [1]: 0.16 ± 0.02% uptake/min
Compound: CC(C)C[C@@H]1NC(=O)[C@H](CCCNC(=N)N)NC(=O)[C@H](Cc2c[nH]c3ccccc23)NC(=O)[C@H](CCCNC(=N)N)NC(=O)CNC(=O)CNC(=O)[C@H](CCCCN)NC(=O)CNC(=O)[C@H](Cc2c[nH]c3ccccc23)NC(=O)[C@H](CC(=O)O)NC(=O)[C@@H](NC(=O)[C@H](CCC(=O)O)NC(=O)[C@H](C)NC(=O)CCCC[C@@H]2SC[C@@H]3NC(=O)N[C@@H]32)CSSC[C@@H](C(=O)NCC(=O)N2CCC[C@H]2C(=O)O)NC(=O)[C@H](C)NC(=O)[C@H](CCC(=O)O)NC(=O)[C@H]([C@@H](C)O)NC(=O)[C@H](CCCCN)NC(=O)CNC(=O)[C@H](CO)NC(=O)[C@H](C)NC(=O)CNC(=O)[C@@H]2CCCN2C(=O)[C@H](Cc2c[nH]c3ccccc23)NC1=O (Biotin-AECDWGKGGRWRLWPGASGKTEACGP-OH; disulfide 3-24 (inferred); C-terminus assumed)

crossing of the blood-brain barrier (in words) [2]: did not cross the blood-brain barrier
Compound: CC(C)C[C@H](NC(=O)[C@H](CCCNC(=N)N)NC(=O)[C@H](Cc1c[nH]c2ccccc12)NC(=O)[C@H](CCCNC(=N)N)NC(=O)CNC(=O)CNC(=O)[C@H](CCCCN)NC(=O)CNC(=O)[C@H](Cc1c[nH]c2ccccc12)NC(=O)[C@H](CC(=O)O)NC(=O)CCCC[C@@H]1SC[C@@H]2NC(=O)N[C@@H]21)C(=O)N[C@@H](Cc1c[nH]c2ccccc12)C(=O)N1CCC[C@H]1C(=O)NCC(=O)N[C@@H](C)C(=O)N[C@@H](CO)C(=O)NCC(=O)N[C@@H](CCCCN)C(=O)N[C@H](C(=O)N[C@@H](CCC(=O)O)C(=O)N[C@@H](C)C(=O)O)[C@@H](C)O (Biotin-DWGKGGRWRLWPGASGKTEA-OH)

Compound: DWGKGGRWRLWPGASGKTEA
staining of Aβ1-40 amyloid by phage clone [3]: identified both small and large (0.5-50 μm) accumulations of Aβ1-40 amyloid; also recorded: stained Aβ1-40 amyloid

Compound: PGRSPFTGKKLFNQEFSQDQ
staining of Aβ1-40 amyloid by phage clone [3]: stained Aβ1-40 amyloid aggregates more poorly, but still stained well above background levels; also recorded: stained Aβ1-40 amyloid less well

Compound: Thio-Aβ: Recombinant fusion protein of thioredoxin with the cysteine-flanked DWGKGGRWRLWPGASGKTEA (SEQ ID NO:2) peptide (PAECDWGKGGRWRLWPGASGKTEACGPPY; cysteine pairing not given here; also: recombinant fusion with thioredoxin, carrier left off)
concentration at which binding to Aβ1-40 amyloid is saturating (Aβ1-40 amyloid): 200 nM
lowest concentration giving positive staining of amyloid plaques ([4]; AD brain sections): 100 nM
staining of neurofibrillary tangles ([4]; AD brain sections): not evident
staining of amyloid plaques in AD brain ([4]; paraffin sections of AD brain): heavily stained amyloid plaques from AD brains; also recorded: bound specifically to amyloid plaques in AD brains; also recorded: confirmed in brains from multiple AD subjects
staining of normal brain ([4]; paraffin sections of normal (non-AD) brain): did not stain any structures in normal brain tissue; also recorded: did not bind to normal brain samples; also recorded: negative in multiple non-AD controls
